Measured values: US8808743B2, “Benzonatate compositions and methods of use” (priority 2010, dated 2014)

Experiment: Simulated buccal dissolution testing (stirred flow-thru cell, simulated saliva)
Type: physicochemical
Details: 8 mg dose
Description: Most USP dissolution tests use large volumes of media—defined as ‘sink conditions’; the aim is to get complete dissolution of the active ingredient. […] They are: • Small volume • Short residence time • Solids transfer • Composition • Incomplete dissolution
For buccal dissolution the volume of saliva is very small compared to that of the stomach and the residence time in the mouth is also very short, the bulk of the dosage form being swallowed within a minute. The dissolution test used here employed procedures and a buccal dissolution apparatus devised by DOW Chemical described in U.S. Pat. No. 7,470,545 B2 herein incorporated by reference to the extent not incompatible herewith.
In order for this test to give meaningful results it is necessary to use a dissolution media that simulates saliva. There is no USP recommended simulated saliva, so the composition used in these studies was based on published ranges. The composition used is shown below:
The technique uses a stirred flow-thru cell with a very short residence time. The buccal dissolution test was set up using simulated saliva, with a liquid volume in the cell of 9 ml, and a flow rate of 5.3 ml/min (2.7 ml/min thru the dip tube to waste, and 2.6 ml/min thru the filter and the in-line UV cell). UV cell path length was 1 mm. The tests were run at room temperature
Buccal dissolution studies were carried out with neat Formosa benzonatate (abbreviated below as “Benz”) and benzonatate resinates prepared from this benzonatate. Preparation of the resinates was at room temperature for 40 hours by the procedure described in Example 2.
Dissolution data were obtained at several benzonatate dosages for both the neat benzonatate and the resinates, and the data were normalized to a dosage of 8 mg. The normalized benzonatate dissolution data are given in Table VII and are plotted as a function of time in FIG. 6.

In the case of `CCCCNc1ccc(C(=O)OCCOCCOCCOCCOCCOCCOCCOCCOCCOC)cc1` [BENZ, benzonatate], the “Benzonatate Conc. In Effluent” value (0 sec) was 0 mg/L, the “Benzonatate Conc. In Effluent” value (5 sec) was 0 mg/L and the “Benzonatate Conc. In Effluent” value (10 sec) was 0 mg/L. For the same compound, the “Benzonatate Conc. In Effluent” value (15 sec) was 37.3 mg/L, the “Cumulative Benzonatate Released” value (15 sec) was 0.008 mg and the “Benzonatate Conc. In Effluent” value (20 sec) was 192.8 mg/L. For the same compound, the “Cumulative Benzonatate Released” value (20 sec) was 0.059 mg, the “Benzonatate Conc. In Effluent” value (25 sec) was 353.0 mg/L and the “Cumulative Benzonatate Released” value (25 sec) was 0.180 mg. For the same compound, the “Benzonatate Conc. In Effluent” value (30 sec) was 473.4 mg/L, the “Cumulative Benzonatate Released” value (30 sec) was 0.362 mg and the “Benzonatate Conc. In Effluent” value (35 sec) was 544.2 mg/L. The “Cumulative Benzonatate Released” value (35 sec) was 0.587 mg, the “Benzonatate Conc. In Effluent” value (40 sec) was 574.7 mg/L and the “Cumulative Benzonatate Released” value (40 sec) was 0.834 mg. For the same compound, the “Benzonatate Conc. In Effluent” value (45 sec) was 585.5 mg/L, the “Cumulative Benzonatate Released” value (45 sec) was 1.090 mg and the “Benzonatate Conc. In Effluent” value (50 sec) was 573.6 mg/L. The “Cumulative Benzonatate Released” value (50 sec) was 1.346 mg, the “Benzonatate Conc. In Effluent” value (55 sec) was 559.0 mg/L and the “Cumulative Benzonatate Released” value (55 sec) was 1.596 mg. The “Benzonatate Conc. In Effluent” value (60 sec) was 541.7 mg/L, the “Cumulative Benzonatate Released” value (60 sec) was 1.839 mg and the “Benzonatate Conc. In Effluent” value (65 sec) was 519.6 mg/L. The “Cumulative Benzonatate Released” value (65 sec) was 2.074 mg, the “Benzonatate Conc. In Effluent” value (70 sec) was 498.0 mg/L and the “Cumulative Benzonatate Released” value (70 sec) was 2.298 mg. For the same compound, the “Benzonatate Conc. In Effluent” value (75 sec) was 480.4 mg/L, the “Cumulative Benzonatate Released” value (75 sec) was 2.514 mg and the “Benzonatate Conc. In Effluent” value (80 sec) was 460.2 mg/L. The “Cumulative Benzonatate Released” value (80 sec) was 2.722 mg, the “Benzonatate Conc. In Effluent” value (85 sec) was 439.9 mg/L and the “Cumulative Benzonatate Released” value (85 sec) was 2.921 mg. For the same compound, the “Benzonatate Conc. In Effluent” value (90 sec) was 421.8 mg/L, the “Cumulative Benzonatate Released” value (90 sec) was 3.111 mg and the “Benzonatate Conc. In Effluent” value (95 sec) was 403.2 mg/L. For the same compound, the “Cumulative Benzonatate Released” value (95 sec) was 3.293 mg, the “Benzonatate Conc. In Effluent” value (100 sec) was 387.3 mg/L and the “Cumulative Benzonatate Released” value (100 sec) was 3.468 mg. For the same compound, the “Benzonatate Conc. In Effluent” value (105 sec) was 369.4 mg/L, the “Cumulative Benzonatate Released” value (105 sec) was 3.635 mg and the “Benzonatate Conc. In Effluent” value (110 sec) was 353.5 mg/L. The “Cumulative Benzonatate Released” value (110 sec) was 3.795 mg, the “Benzonatate Conc. In Effluent” value (115 sec) was 337.8 mg/L and the “Cumulative Benzonatate Released” value (115 sec) was 3.947 mg. For the same compound, the “Benzonatate Conc. In Effluent” value (120 sec) was 323.0 mg/L, the “Cumulative Benzonatate Released” value (120 sec) was 4.093 mg and the “Benzonatate Conc. In Effluent” value (125 sec) was 308.9 mg/L. The “Cumulative Benzonatate Released” value (125 sec) was 4.233 mg, the “Benzonatate Conc. In Effluent” value (130 sec) was 294.9 mg/L and the “Cumulative Benzonatate Released” value (130 sec) was 4.366 mg. For the same compound, the “Benzonatate Conc. In Effluent” value (135 sec) was 282.2 mg/L, the “Cumulative Benzonatate Released” value (135 sec) was 4.494 mg and the “Benzonatate Conc. In Effluent” value (140 sec) was 269.8 mg/L. For the same compound, the “Cumulative Benzonatate Released” value (140 sec) was 4.615 mg, the “Benzonatate Conc. In Effluent” value (145 sec) was 257.6 mg/L and the “Cumulative Benzonatate Released” value (145 sec) was 4.732 mg. For the same compound, the “Benzonatate Conc. In Effluent” value (150 sec) was 246.0 mg/L, the “Cumulative Benzonatate Released” value (150 sec) was 4.843 mg and the “Benzonatate Conc. In Effluent” value (155 sec) was 235.2 mg/L. The “Cumulative Benzonatate Released” value (155 sec) was 4.949 mg, the “Benzonatate Conc. In Effluent” value (160 sec) was 224.7 mg/L and the “Cumulative Benzonatate Released” value (160 sec) was 5.051 mg. For the same compound, the “Benzonatate Conc. In Effluent” value (165 sec) was 214.7 mg/L, the “Cumulative Benzonatate Released” value (165 sec) was 5.148 mg and the “Benzonatate Conc. In Effluent” value (170 sec) was 205.2 mg/L. The “Cumulative Benzonatate Released” value (170 sec) was 5.241 mg, the “Benzonatate Conc. In Effluent” value (175 sec) was 195.8 mg/L and the “Cumulative Benzonatate Released” value (175 sec) was 5.329 mg. The “Benzonatate Conc. In Effluent” value (180 sec) was 187.1 mg/L, the “Cumulative Benzonatate Released” value (180 sec) was 5.414 mg and the “Benzonatate Conc. In Effluent” value (185 sec) was 178.8 mg/L. The “Cumulative Benzonatate Released” value (185 sec) was 5.495 mg, the “Benzonatate Conc. In Effluent” value (190 sec) was 170.9 mg/L and the “Cumulative Benzonatate Released” value (190 sec) was 5.572 mg. For the same compound, the “Benzonatate Conc. In Effluent” value (195 sec) was 163.1 mg/L, the “Cumulative Benzonatate Released” value (195 sec) was 5.646 mg and the “Benzonatate Conc. In Effluent” value (200 sec) was 155.8 mg/L. For the same compound, the “Cumulative Benzonatate Released” value (200 sec) was 5.716 mg, the “Benzonatate Conc. In Effluent” value (205 sec) was 148.8 mg/L and the “Cumulative Benzonatate Released” value (205 sec) was 5.783 mg. For the same compound, the “Benzonatate Conc. In Effluent” value (210 sec) was 142.0 mg/L, the “Cumulative Benzonatate Released” value (210 sec) was 5.848 mg and the “Benzonatate Conc. In Effluent” value (215 sec) was 135.6 mg/L. The “Cumulative Benzonatate Released” value (215 sec) was 5.909 mg, the “Benzonatate Conc. In Effluent” value (220 sec) was 129.6 mg/L and the “Cumulative Benzonatate Released” value (220 sec) was 5.967 mg. For the same compound, the “Benzonatate Conc. In Effluent” value (225 sec) was 123.7 mg/L, the “Cumulative Benzonatate Released” value (225 sec) was 6.023 mg and the “Benzonatate Conc. In Effluent” value (230 sec) was 118.3 mg/L. For the same compound, the “Cumulative Benzonatate Released” value (230 sec) was 6.077 mg, the “Benzonatate Conc. In Effluent” value (235 sec) was 112.9 mg/L and the “Cumulative Benzonatate Released” value (235 sec) was 6.128 mg. For the same compound, the “Benzonatate Conc. In Effluent” value (240 sec) was 107.8 mg/L, the “Cumulative Benzonatate Released” value (240 sec) was 6.177 mg and the “Benzonatate Conc. In Effluent” value (245 sec) was 102.9 mg/L. For the same compound, the “Cumulative Benzonatate Released” value (245 sec) was 6.223 mg, the “Benzonatate Conc. In Effluent” value (250 sec) was 98.3 mg/L and the “Cumulative Benzonatate Released” value (250 sec) was 6.268 mg. For the same compound, the “Benzonatate Conc. In Effluent” value (255 sec) was 93.7 mg/L, the “Cumulative Benzonatate Released” value (255 sec) was 6.310 mg and the “Benzonatate Conc. In Effluent” value (260 sec) was 89.7 mg/L. The “Cumulative Benzonatate Released” value (260 sec) was 6.350 mg, the “Benzonatate Conc. In Effluent” value (265 sec) was 85.6 mg/L and the “Cumulative Benzonatate Released” value (265 sec) was 6.389 mg. The “Benzonatate Conc. In Effluent” value (270 sec) was 81.8 mg/L, the “Cumulative Benzonatate Released” value (270 sec) was 6.426 mg and the “Benzonatate Conc. In Effluent” value (275 sec) was 78.0 mg/L. The “Cumulative Benzonatate Released” value (275 sec) was 6.461 mg, the “Benzonatate Conc. In Effluent” value (280 sec) was 74.5 mg/L and the “Cumulative Benzonatate Released” value (280 sec) was 6.495 mg. For the same compound, the “Benzonatate Conc. In Effluent” value (285 sec) was 71.3 mg/L, the “Cumulative Benzonatate Released” value (285 sec) was 6.527 mg and the “Benzonatate Conc. In Effluent” value (290 sec) was 68.1 mg/L. For the same compound, the “Cumulative Benzonatate Released” value (290 sec) was 6.558 mg, the “Benzonatate Conc. In Effluent” value (295 sec) was 64.8 mg/L and the “Cumulative Benzonatate Released” value (295 sec) was 6.587 mg. For the same compound, the “Benzonatate Conc. In Effluent” value (300 sec) was 61.6 mg/L and the “Cumulative Benzonatate Released” value (300 sec) was 6.615 mg.
